Results: article PMC5156323 (Journal of natural products, 2015)

Legend:
Assay type in all cases: cell-based
[1] = test system: proinflammatory cytokine production in induced THP-1 cells; test: induced THP-1; conditions: at 10 μM
[2] = test system: IL-1β production in induced THP-1 cells; test: induced THP-1; conditions: abstract, no concentration given
[3] = test system: interleukin 6 (IL-6) production in induced THP-1 cells; test: induced THP-1
[4] = test system: IL-33 production in induced THP-1 cells; test: induced THP-1; conditions: at 10 μM; THP-1 cells induced with LPS and TiO2
[5] = test system: tumor necrosis factor-alpha (TNF-α) production in induced THP-1 cells; test: induced THP-1; conditions: abstract, no concentration given
[6] = test system: melanoma cell line LOX IMVI; test: NCI-DTP 60, LOX IMVI; conditions: Homo sapiens, read-out: IC50 (cytotoxic)
[7] = test system: leukemia cell line SR; test: NCI-DTP 60, SR; conditions: read-out: IC50 (cytotoxic)

SMILES	effect on proinflammatory cytokine production [1]	IL-1β production in the induced inflammasome assay [2]	IL-6 production in the induced inflammasome assay ([3]; abstract, no concentration given)	inhibition of production of interleukin 6 (IL-6) ([3]; at 10 μM, THP-1 cells induced with LPS and TiO2)	inhibition of production of IL-33 [4]	TNFα production in the induced inflammasome assay [5]	IC50 [6]	IC50 [7]
CCCCCCCCCC(=O)[C@@H]1C(=O)O[C@@]2(C)C(=O)C=C3C=C(C[C@H](C)O)OC=C3[C@@H]12 [Compound 1, berkchaetoazaphilone A]	no effect							
CCCCCCCCCC(=O)[C@@]12O[C@@]13C1=COC(C[C@H](C)O)=CC1=CC(=O)[C@]3(C)OC2=O [Compound 2, berkchaetoazaphilone B]		inhibited	inhibited	completely inhibited	completely inhibited	inhibited	10 µM	10 µM
